The supplement of paper PMC10307832

What was measured:
Experiment in all cases: relative viability (nuclei count vs DMSO), 5 days (fraction); higher = more cells survive
Alisertib + Olaparib = compound: COc1cc(Nc2ncc3c(n2)-c2ccc(Cl)cc2C(c2c(F)cccc2OC)=NC3)ccc1C(=O)O [Alisertib] + O=C(c1cc(Cc2n[nH]c(=O)c3ccccc23)ccc1F)N1CCN(C(=O)C2CC2)CC1 [Olaparib] (partner 8 µM)
Procedure, shortened: (§1)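 Values are medians from duplicate plates. Each reflects relative viability, defined as the nuclei count of treated wells over that of vehicle wells. Lung cancer cell lines in 1536-well plates were pin-tool dosed one day after seeding with one drug alone or with a fixed anchor-drug dose plus five library-drug doses (not always all listed) in √10 steps, then fixed, stained and imaged at 4× after 5 days.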

Alisertib + Lapatinib = compound: COc1cc(Nc2ncc3c(n2)-c2ccc(Cl)cc2C(c2c(F)cccc2OC)=NC3)ccc1C(=O)O [Alisertib] + CS(=O)(=O)CCNCc1ccc(-c2ccc3ncnc(Nc4ccc(OCc5cccc(F)c5)c(Cl)c4)c3c2)o1 [Lapatinib] (partner 2 µM)
Procedure, shortened: as §1

Alisertib + Decitabine = compound: COc1cc(Nc2ncc3c(n2)-c2ccc(Cl)cc2C(c2c(F)cccc2OC)=NC3)ccc1C(=O)O [Alisertib] + Nc1ncn([C@H]2C[C@H](O)[C@@H](CO)O2)c(=O)n1 [Decitabine] (partner 2 µM)
Procedure, shortened: as §1

Alisertib + Luminespib = compound: COc1cc(Nc2ncc3c(n2)-c2ccc(Cl)cc2C(c2c(F)cccc2OC)=NC3)ccc1C(=O)O [Alisertib] + CCNC(=O)c1noc(-c2cc(C(C)C)c(O)cc2O)c1-c1ccc(CN2CCOCC2)cc1 [Luminespib] (partner 0.01 µM)
Procedure, shortened: as §1

SK-LU-1
relative viability (Alisertib + Olaparib; first compound 0.005 µM): 0.437
relative viability (Alisertib + Olaparib; first compound 0.01581 µM): 0.447
relative viability (Alisertib + Olaparib; first compound 0.05 µM): 0.344
relative viability (Alisertib + Olaparib; first compound 0.1581 µM): 0.247
relative viability (Alisertib + Olaparib; first compound 0.5 µM): 0.183
relative viability (Alisertib + Lapatinib; first compound 0.005 µM): 0.79
relative viability (Alisertib + Lapatinib; first compound 0.01581 µM): 0.569
relative viability (Alisertib + Lapatinib; first compound 0.05 µM): 0.296
relative viability (Alisertib + Lapatinib; first compound 0.1581 µM): 0.265
relative viability (Alisertib + Lapatinib; first compound 0.5 µM): 0.237
relative viability (Alisertib + Decitabine; first compound 0.005 µM): 0.58
relative viability (Alisertib + Decitabine; first compound 0.01581 µM): 0.665
relative viability (Alisertib + Decitabine; first compound 0.05 µM): 0.239
relative viability (Alisertib + Decitabine; first compound 0.1581 µM): 0.307
relative viability (Alisertib + Decitabine; first compound 0.5 µM): 0.276
relative viability (Alisertib + Luminespib; first compound 0.005 µM): 0.178
relative viability (Alisertib + Luminespib; first compound 0.01581 µM): 0.18
relative viability (Alisertib + Luminespib; first compound 0.05 µM): 0.159
relative viability (Alisertib + Luminespib; first compound 0.1581 µM): 0.184
relative viability (Alisertib + Luminespib; first compound 0.5 µM): 0.178

LOU-NH91
relative viability (Alisertib + Olaparib; first compound 0.005 µM): 0.89
relative viability (Alisertib + Olaparib; first compound 0.01581 µM): 0.871
relative viability (Alisertib + Olaparib; first compound 0.05 µM): 0.63
relative viability (Alisertib + Olaparib; first compound 0.1581 µM): 0.464
relative viability (Alisertib + Olaparib; first compound 0.5 µM): 0.399
relative viability (Alisertib + Lapatinib; first compound 0.005 µM): 0.773
relative viability (Alisertib + Lapatinib; first compound 0.01581 µM): 0.784
relative viability (Alisertib + Lapatinib; first compound 0.05 µM): 0.731
relative viability (Alisertib + Lapatinib; first compound 0.1581 µM): 0.484
relative viability (Alisertib + Lapatinib; first compound 0.5 µM): 0.361
relative viability (Alisertib + Decitabine; first compound 0.005 µM): 0.799
relative viability (Alisertib + Decitabine; first compound 0.01581 µM): 0.77
relative viability (Alisertib + Decitabine; first compound 0.05 µM): 0.651
relative viability (Alisertib + Decitabine; first compound 0.1581 µM): 0.524
relative viability (Alisertib + Decitabine; first compound 0.5 µM): 0.45
relative viability (Alisertib + Luminespib; first compound 0.005 µM): 0.334
relative viability (Alisertib + Luminespib; first compound 0.01581 µM): 0.311
relative viability (Alisertib + Luminespib; first compound 0.05 µM): 0.297
relative viability (Alisertib + Luminespib; first compound 0.1581 µM): 0.293
relative viability (Alisertib + Luminespib; first compound 0.5 µM): 0.291

NCI-H2347
relative viability (Alisertib + Olaparib; first compound 0.005 µM): 0.555
relative viability (Alisertib + Olaparib; first compound 0.01581 µM): 0.546
relative viability (Alisertib + Olaparib; first compound 0.05 µM): 0.474
relative viability (Alisertib + Olaparib; first compound 0.1581 µM): 0.491
relative viability (Alisertib + Olaparib; first compound 0.5 µM): 0.365
relative viability (Alisertib + Lapatinib; first compound 0.005 µM): 0.815
relative viability (Alisertib + Lapatinib; first compound 0.01581 µM): 0.911
relative viability (Alisertib + Lapatinib; first compound 0.05 µM): 0.877
relative viability (Alisertib + Lapatinib; first compound 0.1581 µM): 0.738
relative viability (Alisertib + Lapatinib; first compound 0.5 µM): 0.531
relative viability (Alisertib + Decitabine; first compound 0.005 µM): 0.574
relative viability (Alisertib + Decitabine; first compound 0.01581 µM): 0.582
relative viability (Alisertib + Decitabine; first compound 0.05 µM): 0.523
relative viability (Alisertib + Decitabine; first compound 0.1581 µM): 0.51
relative viability (Alisertib + Decitabine; first compound 0.5 µM): 0.374
relative viability (Alisertib + Luminespib; first compound 0.005 µM): 0.275
relative viability (Alisertib + Luminespib; first compound 0.01581 µM): 0.287
relative viability (Alisertib + Luminespib; first compound 0.05 µM): 0.429
relative viability (Alisertib + Luminespib; first compound 0.1581 µM): 0.317
relative viability (Alisertib + Luminespib; first compound 0.5 µM): 0.422

NCI-H2126
relative viability (Alisertib + Olaparib; first compound 0.005 µM): 0.816
relative viability (Alisertib + Olaparib; first compound 0.01581 µM): 0.785
relative viability (Alisertib + Olaparib; first compound 0.05 µM): 0.516
relative viability (Alisertib + Olaparib; first compound 0.1581 µM): 0.295
relative viability (Alisertib + Olaparib; first compound 0.5 µM): 0.321
relative viability (Alisertib + Lapatinib; first compound 0.005 µM): 0.688
relative viability (Alisertib + Lapatinib; first compound 0.01581 µM): 0.754
relative viability (Alisertib + Lapatinib; first compound 0.05 µM): 0.713
relative viability (Alisertib + Lapatinib; first compound 0.1581 µM): 0.408
relative viability (Alisertib + Lapatinib; first compound 0.5 µM): 0.312
relative viability (Alisertib + Decitabine; first compound 0.005 µM): 0.528
relative viability (Alisertib + Decitabine; first compound 0.01581 µM): 0.558
relative viability (Alisertib + Decitabine; first compound 0.05 µM): 0.326
relative viability (Alisertib + Decitabine; first compound 0.1581 µM): 0.268
relative viability (Alisertib + Decitabine; first compound 0.5 µM): 0.553
relative viability (Alisertib + Luminespib; first compound 0.005 µM): 0.785
relative viability (Alisertib + Luminespib; first compound 0.01581 µM): 0.834
relative viability (Alisertib + Luminespib; first compound 0.05 µM): 0.601
relative viability (Alisertib + Luminespib; first compound 0.1581 µM): 0.274
relative viability (Alisertib + Luminespib; first compound 0.5 µM): 0.285

HCC-827
relative viability (Alisertib + Olaparib; first compound 0.005 µM): 0.639
relative viability (Alisertib + Olaparib; first compound 0.01581 µM): 0.654
relative viability (Alisertib + Olaparib; first compound 0.05 µM): 0.201
relative viability (Alisertib + Olaparib; first compound 0.1581 µM): 0.293
relative viability (Alisertib + Olaparib; first compound 0.5 µM): 0.257
relative viability (Alisertib + Lapatinib; first compound 0.005 µM): 0.183
relative viability (Alisertib + Lapatinib; first compound 0.01581 µM): 0.228
relative viability (Alisertib + Lapatinib; first compound 0.05 µM): 0.191
relative viability (Alisertib + Lapatinib; first compound 0.1581 µM): 0.16
relative viability (Alisertib + Lapatinib; first compound 0.5 µM): 0.101
relative viability (Alisertib + Decitabine; first compound 0.005 µM): 0.373
relative viability (Alisertib + Decitabine; first compound 0.01581 µM): 0.303
relative viability (Alisertib + Decitabine; first compound 0.05 µM): 0.246
relative viability (Alisertib + Decitabine; first compound 0.1581 µM): 0.219
relative viability (Alisertib + Decitabine; first compound 0.5 µM): 0.24
relative viability (Alisertib + Luminespib; first compound 0.005 µM): 0.48
relative viability (Alisertib + Luminespib; first compound 0.01581 µM): 0.598
relative viability (Alisertib + Luminespib; first compound 0.05 µM): 0.204
relative viability (Alisertib + Luminespib; first compound 0.1581 µM): 0.209
relative viability (Alisertib + Luminespib; first compound 0.5 µM): 0.234

NCI-H3122
relative viability (Alisertib + Olaparib; first compound 0.005 µM): 0.627
relative viability (Alisertib + Olaparib; first compound 0.01581 µM): 0.717
relative viability (Alisertib + Olaparib; first compound 0.05 µM): 0.41
relative viability (Alisertib + Olaparib; first compound 0.1581 µM): 0.261
relative viability (Alisertib + Olaparib; first compound 0.5 µM): 0.222
relative viability (Alisertib + Lapatinib; first compound 0.005 µM): 1.01
relative viability (Alisertib + Lapatinib; first compound 0.01581 µM): 0.999
relative viability (Alisertib + Lapatinib; first compound 0.05 µM): 0.899
relative viability (Alisertib + Lapatinib; first compound 0.1581 µM): 0.433
relative viability (Alisertib + Lapatinib; first compound 0.5 µM): 0.307
relative viability (Alisertib + Decitabine; first compound 0.005 µM): 0.376
relative viability (Alisertib + Decitabine; first compound 0.01581 µM): 0.412
relative viability (Alisertib + Decitabine; first compound 0.05 µM): 0.375
relative viability (Alisertib + Decitabine; first compound 0.1581 µM): 0.192
relative viability (Alisertib + Decitabine; first compound 0.5 µM): 0.161
relative viability (Alisertib + Luminespib; first compound 0.005 µM): 0.105
relative viability (Alisertib + Luminespib; first compound 0.01581 µM): 0.101
relative viability (Alisertib + Luminespib; first compound 0.05 µM): 0.0716
relative viability (Alisertib + Luminespib; first compound 0.1581 µM): 0.0737
relative viability (Alisertib + Luminespib; first compound 0.5 µM): 0.0805

HOP-62
relative viability (Alisertib + Olaparib; first compound 0.005 µM): 0.361
relative viability (Alisertib + Olaparib; first compound 0.01581 µM): 0.328
relative viability (Alisertib + Olaparib; first compound 0.05 µM): 0.134
relative viability (Alisertib + Olaparib; first compound 0.1581 µM): 0.132
relative viability (Alisertib + Olaparib; first compound 0.5 µM): 0.0731
relative viability (Alisertib + Lapatinib; first compound 0.005 µM): 0.838
relative viability (Alisertib + Lapatinib; first compound 0.01581 µM): 0.803
relative viability (Alisertib + Lapatinib; first compound 0.05 µM): 0.883
relative viability (Alisertib + Lapatinib; first compound 0.1581 µM): 0.223
relative viability (Alisertib + Lapatinib; first compound 0.5 µM): 0.146
relative viability (Alisertib + Decitabine; first compound 0.005 µM): 0.17
relative viability (Alisertib + Decitabine; first compound 0.01581 µM): 0.217
relative viability (Alisertib + Decitabine; first compound 0.05 µM): 0.205
relative viability (Alisertib + Decitabine; first compound 0.1581 µM): 0.136
relative viability (Alisertib + Decitabine; first compound 0.5 µM): 0.2
relative viability (Alisertib + Luminespib; first compound 0.005 µM): 0.845
relative viability (Alisertib + Luminespib; first compound 0.01581 µM): 0.808
relative viability (Alisertib + Luminespib; first compound 0.05 µM): 0.288
relative viability (Alisertib + Luminespib; first compound 0.1581 µM): 0.259
relative viability (Alisertib + Luminespib; first compound 0.5 µM): 0.153

HCC-44
relative viability (Alisertib + Olaparib; first compound 0.005 µM): 0.944
relative viability (Alisertib + Olaparib; first compound 0.01581 µM): 0.856
relative viability (Alisertib + Olaparib; first compound 0.05 µM): 0.501
relative viability (Alisertib + Olaparib; first compound 0.1581 µM): 0.508
relative viability (Alisertib + Olaparib; first compound 0.5 µM): 0.391
relative viability (Alisertib + Lapatinib; first compound 0.005 µM): 0.991
relative viability (Alisertib + Lapatinib; first compound 0.01581 µM): 0.922
relative viability (Alisertib + Lapatinib; first compound 0.05 µM): 0.906
relative viability (Alisertib + Lapatinib; first compound 0.1581 µM): 0.242
relative viability (Alisertib + Lapatinib; first compound 0.5 µM): 0.151
relative viability (Alisertib + Decitabine; first compound 0.005 µM): 0.895
relative viability (Alisertib + Decitabine; first compound 0.01581 µM): 0.937
relative viability (Alisertib + Decitabine; first compound 0.05 µM): 0.849
relative viability (Alisertib + Decitabine; first compound 0.1581 µM): 0.419
relative viability (Alisertib + Decitabine; first compound 0.5 µM): 0.364
relative viability (Alisertib + Luminespib; first compound 0.005 µM): 0.91
relative viability (Alisertib + Luminespib; first compound 0.01581 µM): 0.667
relative viability (Alisertib + Luminespib; first compound 0.05 µM): 0.355
relative viability (Alisertib + Luminespib; first compound 0.1581 µM): 0.18
relative viability (Alisertib + Luminespib; first compound 0.5 µM): 0.176
